These results are taken from patent US20230119013A1, “N-CYANOPYRROLIDINES WITH ACTIVITY AS USP30 INHIBITORS” (MISSION THERAPEUTICS LIMITED, priority 2020, published 2023).

As a reminder, the IC50 is the concentration at which inhibition is half-maximal.

For one series, the target named is Cathepsin S (Homo sapiens, UniProt P25774). Put plainly: Cathepsin IC50, Cathepsin S. Format: biochemical.
Another series concerns TOM20 ubiquitylation. The experiment in a line: TOM20-ubiquitylation assay. Format: cell-based, human. The note with it: antimycin A/oligomycin mitophagy trigger. The text has this:
Human cell lines can be challenged with mitochondrial depolarizing agents (ionophores (eg. CCCP, valinomycin), mitochondrial complex inhibitors (oligomycin, antimycin A)) to induce ubiquitylation of TOM20, which is then further promoted in the presence of USP30 inhibitors. TOM20 ubiquitylation is subsequently assessed through western blotting of the cell lysates, with TOM20 ubiquitylation adduct detection possible due to an 8 kDa molecule weight increase for each molecule of ubiquitin added, resulting in laddering of a TOM20 immunoreactive band. TOM20-ubiquitylation levels can be quantified using chemiluminescence densitometry of laddered immunoreactive bands.

The nature of series [1]: Brain homogenate free fraction by equilibrium dialysis. Format: in vitro ADME. As to conditions: mouse brain homogenate; read-out: Binding Mouse Brain fu, br. An excerpt:
(§1) log P: partition coefficient; lipophilicity measurement. log D: distribution co-efficient; lipophilicity measurement. TPSA: topological polar surface area. Turbidimetric solubility: Test compound solution prepared in DMSO diluted into aqueous buffer. Turbidimetry is used as the end-point by measuring absorbance at 620 nm. FaSSIF: simulated intestinal fluid in fasted state measured at pH 6.5. Hep Cl mouse: in vitro hepatocyte clearance in mouse cells. Hep Cl human: in vitro hepatocyte clearance in human cells. Plasma fu,p: The free fraction of a compound in plasma preparation determined by in vitro equilibrium dialysis. It is understood that only unbound (free) compound is capable of engaging with the target. Brain fu,br: The free fraction of a compound in brain homogenate preparation determined by in vitro equilibrium dialysis. It is understood that only unbound (free) compound is capable of engaging with the target. Clu: in vitro clearance. Clu as defined here is the scaled clearance, in turn calculated from the intrinsic clearance. The intrinsic clearance is the predicted clearance due to hepatic metabolic reactions, determined from incubation of a compound in a hepatocyte preparation. […] Cl in vivo clearance: Pharmacokinetic measurement of the volume of plasma (or any matrix) from which a substance is completely removed per unit time.

The nature of a further series: PK mouse. It counts as in vivo. The note with it: for Unbound plasma Cmax/TOM20-Ub cell potency: 10 mg/kg PO dose - mouse; for bioavailability: po, 10 mg/kg, read-out: PK mouse Oral F (%); for bioavailability / clearance: mouse.
Source text: as §1
MDR1-MDCK (Madin-Darby Canine Kidney cell monolayer) (in vitro) flux assay. Cell TE WB: USP30 endogenous cellular target engagement western blot (WB) assay. Assays the activity of compounds against USP30 in cells using an irreversible activity probe to monitor USP30 activity. TE ex vivo: USP30 kidney tissue target engagement assay. Kp u,u is the ratio of unbound drug in brain to unbound drug in plasma and may be indicative of potential for treating peripheral and/or CNS indications.

Series [2] has as its system UCHL1, USP1, USP2, USP6, USP9x, USP10, USP15, USP16, USP20, USP21, USP22, USP25, USP28, USP35, USP36, USP46/UAF1. Put plainly: DUB biochemical IC50 assays (off-target panel).
For another series, the target named is Cathepsin V (Homo sapiens, UniProt O60911). Put plainly: Cathepsin IC50, Cathepsin V. Format: biochemical.
The nature of a further series: Log D measurement. It counts as physicochemical. The note with it: pH 7.4; read-out: Log D measured at pH 7.4.
Source text: as §1

In the next series the test system is hepatocyte. The experiment in a line: Hepatocyte clearance human. Format: in vitro ADME. The note with it: human hepatocytes.
Source text: as §1

The test system of series [3] is T1, cathepsins B, K, L, S and V.
T1 construct: Cathepsin IC50 (μM) B, K, L, S, V; other: range over the five cathepsins
The experiment in a line: Cathepsin IC50, summary over B, K, L, S, V. It counts as biochemical. As to conditions: range over the five cathepsins.

In series [4] the test system is cathepsins B, K, L, S and V. Put plainly: Cathepsin IC50, summary over B, K, L, S, V. Format: biochemical. As to conditions: K, L; for fold more potent against USP30 than against each of the cathepsins, at a minimum: cathepsins B, S and V; for Selectivity preference for USP30 v cathepsins: range over cathepsins B, S.
In series [5] the test system is Salmonella typhimurium strains TA98, TA100, TA1535 and TA97a and the Escherichia Coli strain WP2 uvrA pKM101. Put plainly: Bacterial reverse mutation assay (Ames). As to conditions: up to 1000 μg/well (5000 μg/plate), with and without metabolic activation. Format: cell-based. As for the experimental part:
The bacterial reverse mutation assay (Ames Test) may be used to evaluate the mutagenic properties of compounds of the invention, commonly by using the bacterial strain Salmonella typhimurium, which is mutant for the biosynthesis of the amino acid histidine.
Example 1 was assessed in the bacterial reverse mutation assay (Ames) and in vitro micronucleus assay. All in vitro tests were conducted with and without exogenous metabolic activation using concentrations up to those limited by cytotoxicity or insolubility.
Example 2 was assessed in the bacterial reverse mutation assay (Ames). All in vitro tests were conducted with and without exogenous metabolic activation using concentrations up to those limited by cytotoxicity or insolubility.

The target in another series is Cathepsin B (Homo sapiens, UniProt P07858). The experiment in a line: Cathepsin IC50, Cathepsin B. It counts as biochemical.
The nature of a further series: FaSSIF solubility. Format: physicochemical. As to conditions: pH 6.5, simulated intestinal fluid in fasted state.
Source text: as §1

Another series has as its target T2, UCHL1 (Homo sapiens, UniProt P09936).
T2 sequence (P09936 1-223): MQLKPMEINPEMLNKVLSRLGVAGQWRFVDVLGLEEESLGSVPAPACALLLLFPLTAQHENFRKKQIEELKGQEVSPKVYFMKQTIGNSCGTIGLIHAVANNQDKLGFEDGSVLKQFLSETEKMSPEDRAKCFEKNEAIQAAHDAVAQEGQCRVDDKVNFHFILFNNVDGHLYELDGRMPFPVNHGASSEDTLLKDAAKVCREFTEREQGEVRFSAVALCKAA
The experiment in a line: DUB IC50 UCHL1. Format: biochemical.

Setting [6] is: whole blood, 2 mg/kg iv, read-out: PK mouse Cl blood.

Where two headings read alike, the source gives them in different places.

Chain of Cathepsin S (P25774 115-331, species assumed): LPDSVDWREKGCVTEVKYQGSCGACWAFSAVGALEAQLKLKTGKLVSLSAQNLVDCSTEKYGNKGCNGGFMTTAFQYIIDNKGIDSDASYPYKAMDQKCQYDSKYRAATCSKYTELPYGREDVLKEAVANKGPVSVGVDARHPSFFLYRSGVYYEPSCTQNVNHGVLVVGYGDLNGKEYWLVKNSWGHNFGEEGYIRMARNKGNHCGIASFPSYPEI
Chain of Cathepsin V (O60911 114-334, species assumed): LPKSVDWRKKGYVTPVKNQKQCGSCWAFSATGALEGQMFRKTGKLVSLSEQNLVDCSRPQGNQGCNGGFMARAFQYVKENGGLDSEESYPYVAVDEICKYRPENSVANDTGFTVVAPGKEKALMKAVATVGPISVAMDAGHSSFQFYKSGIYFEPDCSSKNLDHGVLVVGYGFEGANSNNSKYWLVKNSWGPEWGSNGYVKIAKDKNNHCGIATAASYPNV

In the case of `COC[C@@H]1C[C@@H](NC(=O)c2ncc(-c3cccc(OC(F)(F)F)c3)o2)CN1C#N` [Example 1, N-((3R,5S)-1-Cyano-5-(methoxymethyl)pyrrolidin-3-yl)-5-(3-(trifluoromethoxy)phenyl)oxazole-2-carboxamide], the IC50 on Cathepsin S is 158 µM; at Cathepsin V it was 132 µM; in series [3], 16.5 to 158 µM; on Cathepsin B, 44.3 µM; against UCHL1, more than 300 µM. The “TOM20-Ub 1.5-fold gain EC1.5x (μM)” value in the series on TOM20 ubiquitylation is reported as 0.011 (n = 6) μM. Also, the fraction unbound in series [1] came out at 0.043. Moreover, the Kp uu in “PK mouse” (2 mg/kg IV dose - mouse, unbound brain to unbound plasma) worked out at 0.21. In addition, the “Unbound plasma Cmax/TOM20-Ub cell potency” value in “PK mouse” is listed as 25-fold. Further, the bioavailability in the series “PK mouse” (plasma) was 59%. Moreover, the clearance in the series “PK mouse” (plasma, IV, read-out: IV plasma clearance) was 20 mL/min/kg; in the series “PK mouse” (setting [6]), 20 mL/min/kg. Also, the “more selective for USP30 over DUB panel” value in series [2] (v the 16 DUBs of the 9th table) is listed as “(≥880 × more selective”. For the same molecule, the logD in “Log D measurement” turned out to be 2.9. Besides, in the series on hepatocyte, the “Hepatocyte Cl human scaled Clu” value is recorded as 5.6 mL/min/kg. Also, the “fold more potent against USP30 than against each of the cathepsins, at a minimum” value in [4] is given as not below 3300 fold. For the same molecule, the “Selectivity preference for USP30 v cathepsins” value in series [4] is listed as 3300-31600. Further, the “induction of mutations, reverse mutation assay” value in series [5] (TA98, TA100, TA1535, TA97a and E. coli WP2 uvrA pKM101) was “did not induce mutations”. Further, in the series “FaSSIF solubility”, the “FaSSIF (μM) measured at pH 6.5” value was 89 μM. For the same molecule, the “DUB selectivity preference for USP30 v UCHL1” value on UCHL1 was 60000.

Turning to `C[C@@H]1C[C@@H](NC(=O)c2ncc(-c3cccc(OC(F)(F)F)c3)o2)CN1C#N` [Example 2, N-((3R,5R)-1-Cyano-5-methylpyrrolidin-3-yl)-5-(3-(trifluoromethoxy)phenyl)oxazole-2-carboxamide], the IC50 against Cathepsin S was more than 30 µM; on Cathepsin V, more than 30 µM; in series [3], not below 8.5 µM; against Cathepsin B, more than 30 µM; at UCHL1, more than 100 µM. The “TOM20-Ub 1.5-fold gain EC1.5x (μM)” value with TOM20 ubiquitylation is given as 0.009 (n = 4) μM. Further, in series [1], the fraction unbound was determined as 0.028. Also, in “PK mouse”, the “Unbound plasma Cmax/TOM20-Ub cell potency” value is 7-fold. Moreover, in the series “PK mouse” (in vivo), the bioavailability is 36%. The clearance in “PK mouse” (setting [6]) came to 58 mL/min/kg. Moreover, the “more selective for USP30 over DUB panel” value in series [2] (v the 14 DUBs of the 10th table) was “(≥940 × more selective”. The logD in “Log D measurement” was found to be 3.4. Besides, the “Hepatocyte Cl human scaled Clu” value in the series on hepatocyte was determined as 11.2 mL/min/kg. The “fold more potent against USP30 than against each of the cathepsins, at a minimum” value in [4] is recorded as not below 1700 fold. The “Selectivity preference for USP30 v cathepsins” value in series [4] is recorded as 1700-6000. Further, in series [5] (TA98 and TA100), the “induction of mutations, reverse mutation assay” value is “did not induce mutations”. Also, the “FaSSIF (μM) measured at pH 6.5” value in “FaSSIF solubility” is 25 μM. In addition, the “DUB selectivity preference for USP30 v UCHL1” value on UCHL1 stood at 20000.
